Measurements reported in patent US20080161258A1, “Hsp and Supraventricular Arrhythmia” (priority 2004, published 2008).
Entries after “also recorded” stand apart in the source; their conditions may differ.

Columns and labels:
[1] = tested on: HSP27 and HSP70 expression in HL-1 myocytes; test: HSP expression in paced HL-1 myocytes (Western blot); type: cell-based, mouse; conditions: 0.1 μM GGA two hours prior to and during pacing, FIG. 3A
Description: (§1) The HL-1 atrial myocytes, developed from adult mouse atria^29 were obtained from Dr. William Claycomb (Louisiana State University, New Orleans, La., USA) and cultured as described before.^28
HL-1 myocytes (≧1×10^6 myocytes) were cultured on coverslips and subjected to a 10-fold rate increase (rapid pacing) by electrical field stimulation (5 Hz, 1.5 V/cm field strength; Grass S88 stimulator).^28 Elevation of HSP expression in cultured myocytes was accomplished in 3 ways: (I) by subjection to a modest heat stress at 43° C. for 30 min followed by overnight incubation at 37° C., (II) by incubation with 0.1 μM geranylgeranylacetone (GGA, gift from M. Kawai, Japan) two hours prior to and during pacing and (III) by transfection of pHSP70-YFP or pHSP27 24 hrs prior to pacing.
For Western-blot analysis, frozen RAAs and LAAs were used for protein isolation as described previously.^6 For the isolation of proteins from HL-1 myocytes, the cells were lysed by the addition of SDS-PAGE sample buffer followed by sonication before separation on 10% PAA-SDS gels (1.10^5 cells/slot). […] Signals were detected by the ECL-detection method (Amersham, The Netherlands) and quantified by densitometry. […]

HL-1 myocytes = test: Pacing-induced myolysis in HL-1 myocytes (myosin immunofluorescence); type: cell-based, mouse
Text: as §1
Lipofectamine (Life technologies, The Netherlands) was used for transient transfections according to instructions of the manufacturer. pHSP70-YFP encodes a functional human HSP70 fused to YFP under control of a CMV promoter. pHSP27 encodes human HSP27 under control of CMV promoter. […]
After subjecting HL-1 myocytes to rapid pacing, the cells were fixed for 10 minutes in 100% methanol (−20° C.), dried and blocked in 5% BSA (20 minutes room temperature). […] Images of FITC, YFP or CY3 and DAPI fluorescence were obtained by using a Leica confocal laser-scanning microscope (Leica TCS SP2).
For the quantification of the amount of myolysis, at least 5 fields were examined with to a total amount of 250-500 myocytes, and myosin disruption (characteristic for myolysis^12) was scored by three independent observers blinded for the experimental groups. […]

HL-1 cells [2] = test: Calcium transients and cell shortening in tachypaced HL-1 cells; type: cell-based, mouse
Description: In addition to myolysis, we studied the effects of short-term tachypacing of HL-1 cells (3 Hz for 2, 3 and 4 hrs) on Ca^2+ transients (CaTs) and cell shortening (CS) in HL-1 cells, with and without pre-treatment to induce HSP expression: the heat shock stress response inducer geranylgeranylacetone (GGA, 10 μM) or heat shock at 43° C. for 20 minutes (HS) or transient transfection with human HSP27 (pHSP27). In brief, myocytes were field-stimulated with 10-ms twice-threshold strength square-wave pulses. CS was measured with a video edge-detector connected to a charge-coupled device. To record CaTs, myocytes were incubated with indo-1 AM (5-μM) for 5-7 min. Myocytes were then superfused at room temperature for at least 40 min to wash out extracellular indicator and to allow for deesterification. Background and cell autofluorescence were cancelled by zeroing the photomultiplier output in a cell without indo-1 loading. Ultraviolet light from a 100-W mercury arc lamp passing through a 340-nm interference filter (±10 nm bandwidth) was reflected by a dichroic mirror into a ×40 oil-immersion fluor objective for excitation of intracellular indo-1 (excitation beam ˜15 μm diameter). Exposure of the cell to UV light (5-10 of every 30-60 s) was controlled by an electronic shutter (Optikon, model T132) to minimize photobleaching. Emitted light (<550 nm) was reflected into a spectral separator, passed through parallel filters at 400 and 500 nm (+10 nm), detected by matched photomultiplier-tubes (Hamamatsu R2560 HA) and electronically filtered at 60 Hz. The ratio of fluorescence signals (R400/500) was digitized (1 kHz) and used as the index of [Ca^2+]i^(48).

HL-1 cells [3] = test: Calcium current density (ICa++) in paced HL-1 cells; type: cell-based, mouse; conditions: HL-1 cells paced for 4 h; GGA two hours prior to and during pacing; FIG. 5
Description: I-V relationships of peak ICα++ in non-paced (CON) and paced (PC) HL-1 cells. ICα++ was recorded using 300-ms voltage steps to between −70 and +70 mV from −80 mV.

[4] = tested on: dogs subjected to atrial tachypacing; test: Atrial tachycardia-induced remodeling in dogs (atrial tachypacing); type: in vivo, dog; conditions: ATP 400 bpm for 7 days
Description: The effect of HSP induction on in vivo AF-promotion was examined studying the effect of GGA on atrial tachycardia-induced remodeling in dogs (49). Dogs were subjected to atrial tachypacing (ATP) at 400 bpm for 7 days in the absence (ATP, n=5) and presence of oral GGA treatment (120 mg/kg/day, n=3), starting 3 days prior to ATP onset and continued throughout ATP. Results were compared to a non-paced control group (NP, n=5 dogs). Mongrel dogs (20 to 37 kg) were anesthetized with ketamine (5.3 mg/kg IV), diazepam (0.25 mg/kg IV), and halothane (1.5%). Unipolar leads were inserted through jugular veins into the right ventricular (RV) apex and right atrial (RA) appendage and connected to pacemakers (Medtronic) in subcutaneous pockets in the neck. A bipolar electrode was inserted into the RA for stimulation and recording during serial electrophysiological study (EPS). AV block was created by radiofrequency ablation to control ventricular response during atrial tachypacing (ATP). The RV pacemaker was programmed to 80 bpm. For open-chest EPS, dogs were anesthetized with morphine (2 mg/kg SC) and α-chloralose (120 mg/kg IV, followed by 29.25 mg·kg^−1·h^−1), and ventilated mechanically. Body temperature was maintained at 37° C., and a femoral artery and both femoral veins were cannulated for pressure monitoring and drug administration. A median sternotomy was performed, and bipolar electrodes were hooked to the RA and left atrial (LA) appendages for recording and stimulation. A programmable stimulator (Digital Cardiovascular Instruments) was used to deliver twice-threshold currents. Five silicon sheets containing 240 bipolar electrodes were sutured onto the atrial surfaces as previously described.^6-8http://circ.ahajournals.org/cgi/content/full/110/16/2313-R7-155347http://circ.ahajournals.org/cgi/content/full/110/16/2313-R8-155347 Atrial effective refractory periods (ERPs) were measured at multiple basic cycle lengths (BCLs) in the RA and LA appendages. AF vulnerability was determined as the percentage of atrial sites at which AF could be induced by single extrastimuli. After 24 hours for recovery, a baseline closed-chest EPS was performed under ketamine/diazepam/isoflurane anesthesia, and then ATP (400 bpm) was initiated. Closed-chest EPS was repeated at day 7 of ATP, and a final open-chest EPS was performed under morphine/α-chloralose anesthesia.

geranylgeranylacetone [GGA]
HSP27 expression [1]: substantial elevations; also recorded: induces the expression
HSP70 expression [1]: substantial elevations; also recorded: induces the expression
Immunofluorescent staining of myosin in paced myocytes (HL-1 myocytes; 16 hrs paced HL-1 myocytes, FIG. 3B): myosin-staining remains diffusely distributed in the cytoplasm
pacing-induced myolysis (HL-1 myocytes; HL-1 myocytes, rapid pacing 5 Hz, GGA 0.1 μM two hours prior to and during pacing, or transfection 24 hrs prior to pacing): significant reduction
pacing-induced CaT and CS reductions (HL-1 cells [2]; HL-1 cells tachypaced 3 Hz for 2, 3 and 4 hrs, GGA 10 μM or transient transfection with pHSP27): significantly prevented
reduction of Ca2+ transients (CaT) after pacing (HL-1 cells [2]; HL-1 cells, 3 Hz, 2 hrs pacing, GGA 10 μM, p=0.01 vs tachypaced without GGA): 2%±6%
reduction of cell-shortening (CS) after pacing (HL-1 cells [2]; HL-1 cells, 3 Hz, 2 hrs pacing, GGA 10 μM, p=0.03 vs tachypaced without GGA): 11%±3%
pacing-induced reduction of calcium current density (Ica++) (HL-1 cells [3]): the reduction was prevented; also recorded: strongly
ATP-induced changes (DAF, ERP, vulnerability) ([4]; oral GGA 120 mg/kg/day): almost completely suppressed
duration of induced AF (DAF) ([4]; oral GGA 120 mg/kg/day starting 3 days prior to ATP, p<0.05 vs ATP): 39 ± 15 s
atrial effective refractory period (ERP) ([4]; oral GGA 120 mg/kg/day, basic cycle length 300 ms, p<0.05 vs ATP): 102 ± 3 ms
atrial vulnerability to AF (% of atrial sites in which AF was induced by a single extra stimulus) ([4]; oral GGA 120 mg/kg/day, p<0.05 vs ATP): 13±7%
